Test results reported in patent US20180057588A1, “Antibodies Towards an Extracellular Region of NBCn1” (Aarhus Universitet, priority 2015, published 2018).

How the values were obtained:
[1] = target: T1, NHE1-mediated Na+/H+-exchange in MCF-7 human breast cancer cells (Homo sapiens, UniProt P19634); settings: Lauritzen et al., 2010; cited from earlier work
T1 construct: net acid extrusion from MCF-7 cells occurs through a combination of NBCn1-mediated Na^+,HCO3^−-cotransport and NHE1-mediated Na^+/H^+-exchange; endogenous in cells; host or cells: MCF-7 human breast cancer cells (Lauritzen et al., 2010)
T1 sequence (P19634 whole entry): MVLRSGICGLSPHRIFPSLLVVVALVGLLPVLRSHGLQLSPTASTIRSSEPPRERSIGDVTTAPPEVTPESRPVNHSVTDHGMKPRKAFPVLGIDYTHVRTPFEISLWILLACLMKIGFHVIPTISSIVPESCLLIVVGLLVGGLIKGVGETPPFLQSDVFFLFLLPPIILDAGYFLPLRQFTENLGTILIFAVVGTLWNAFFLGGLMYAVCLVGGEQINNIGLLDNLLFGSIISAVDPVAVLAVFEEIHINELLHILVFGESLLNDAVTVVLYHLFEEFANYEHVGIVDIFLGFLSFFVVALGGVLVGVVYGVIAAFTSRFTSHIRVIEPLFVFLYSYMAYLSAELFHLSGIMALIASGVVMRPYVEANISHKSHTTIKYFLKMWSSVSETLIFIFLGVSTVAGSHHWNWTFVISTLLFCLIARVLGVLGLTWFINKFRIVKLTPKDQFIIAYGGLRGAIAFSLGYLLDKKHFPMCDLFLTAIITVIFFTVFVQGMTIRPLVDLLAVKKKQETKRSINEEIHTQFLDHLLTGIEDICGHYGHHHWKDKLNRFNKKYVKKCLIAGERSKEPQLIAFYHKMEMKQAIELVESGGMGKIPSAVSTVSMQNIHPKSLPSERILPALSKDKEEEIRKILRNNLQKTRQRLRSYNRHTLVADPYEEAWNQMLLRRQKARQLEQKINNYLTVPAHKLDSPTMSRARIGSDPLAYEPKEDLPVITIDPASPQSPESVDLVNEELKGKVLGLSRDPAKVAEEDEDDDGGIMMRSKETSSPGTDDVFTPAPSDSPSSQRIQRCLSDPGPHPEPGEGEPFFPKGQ

[2] = tested on: Na+,HCO3−-cotransport in primary aortic explants; test: Global pHi recovery and steady-state pHi in primary aortic explants (BCECF); format: cell-based, mouse
Experimental: Primary explants were produced from thoracic aortas and common carotid arteries of NBCn1 KO and wild-type (WT) mice. To best maintain the cell morphology and phenotype of native VSMCs, cultured cells were never passaged but investigated directly in primary explants.
(§1) Using wide-field fluorescence microscopy, global pHi was recorded in arteries and primary explants loaded with the pH-sensitive fluorophore BCECF. Recordings of pHi in subcellular domains were performed by confocal fluorescence microscopy of cells loaded with the pH-sensitive fluorophore carboxy SNARF-1. Intracellular buffering capacities were calculated from changes in pHi upon washout of NH4Cl. No difference in total intracellular buffering capacity (β) was seen between primary explants from NBCn1 KO and WT mice (βWT=15±2 mM, βKO=17±2 mM, n=8; P=0.45, unpaired two-tailed Student's t-test) evaluated at pHi 6.65-6.80.
The PSS was composed of (in mM) 134 Na^+, 4 K^+, 1.6 Ca^2+, 1.2 Mg^2+, 111 Cl^−, 24 HCO3^−, 1.2 SO4^2−, 1.18 H2PO4^−, 10 HEPES, 5.5 glucose, 0.03 EDTA. In Na^+-free solutions, Na^+ was substituted with an equimolar amount of N-methyl-D-glucammonium (NMDG^+), except for NaHCO3, which was replaced with choline-HCO3. In HCO3^−-free solutions, HCO3^− was replaced with an equimolar amount of Cl^−. […]

[3] = tested on: VSMC migration in primary aortic explants; test: Scratch-wound healing in primary aortic explants; format: cell-based, mouse
Experimental: (§2) Rates of wound healing in primary explants were calculated from time-lapse images captured at 5-minute intervals after scratch infliction. Experiments were performed in Minimum Essential Medium with 10% fetal calf serum or—to avoid binding of the non-selective Na^+,HCO3^−-cotransport inhibitor S0859 to medium or serum components—in physiological saline solutions (PSS). Cell size was estimated based on cell density in confluent areas. Total filopodia length was determined relative to the length of the migrating front (i.e., twice the scratch length). Cell proliferation was evaluated (a) by counting the relative number of cells dividing during six hours time-lapse imaging and (b) as the proportion of cells positive for the thymidine analogue bromodeoxyuridine (BrdU) after six hours incubation.
(§3) The PSS was composed of (in mM) 134 Na^+, 4 K^+, 1.6 Ca^2+, 1.2 Mg^2+, 111 Cl^−, 24 HCO3^−, 1.2 SO4^2−, 1.18 H2PO4^−, 10 HEPES, 5.5 glucose, 0.03 EDTA. In Na^+-free solutions, Na^+ was substituted with an equimolar amount of N-methyl-D-glucammonium (NMDG^+), except for NaHCO3, which was replaced with choline-HCO3. In HCO3^−-free solutions, HCO3^− was replaced with an equimolar amount of Cl^−. HCO3^−-containing solutions were aerated with a gas mixture of 5% CO2/balance air, whereas HCO3^−-free solutions were gassed with air (i.e., 21% O2/balance N2). All solutions were titrated to pH 7.4 at 37° C.

[4] = tested on: VSMCs of primary aortic explants; test: VSMC proliferation by time-lapse counting of mitoses; format: cell-based, mouse; settings: 5 μM, PSS, six hours time-lapse
Experimental: as §2

primary aortic explants = test: Cell integrity, morphology and viability during 18 hours of time-lapse imaging; format: cell-based, mouse
Experimental: as §2, §3

[5] = tested on: migrating VSMCs of primary aortic explants; test: Filopodia length at the migrating front after scratch infliction; format: cell-based, mouse; settings: for presence of filopodia: 5 μM
Experimental: as §2

[6] = tested on: axial pHi gradient in migrating VSMCs of primary aortic explants; test: Subcellular pHi by confocal microscopy (carboxy SNARF-1) in migrating VSMCs; format: cell-based, mouse
Experimental: as §1
Previous studies from non-vascular cell types propose that increased acid extrusion at the leading edge of migrating cells creates an axial pHi gradient, which can facilitate actin polymerization, filopodia formation, and cell migration. To investigate pH gradients within cells, we measured pHi -differences between the tip of filopodia and the general (perinuclear) cytosol two hours after scratch infliction. […] With the intention of investigating local pHi dynamics in the region of the filopodia, we incubated primary explants in absence of CO2/HCO3^− for two hours after wound infliction to allow for filopodia formation. We then investigated pHi after an additional 15 minutes with or without CO2/HCO3^− or in the presence of pharmacological inhibitors (FIG. 13E,F). […]

[7] = target: T2, NBCn1-mediated Na+,HCO3−-cotransport in MCF-7 human breast cancer cells (Homo sapiens, UniProt Q9Y6M7); settings: earlier work; cited from earlier work
T2 construct: net acid extrusion from MCF-7 cells occurs through a combination of NBCn1-mediated Na^+,HCO3^−-cotransport and NHE1-mediated Na^+/H^+-exchange; endogenous in cells; host or cells: MCF-7 human breast cancer cells (Lauritzen et al., 2010)
T2 sequence (Q9Y6M7 1-1214): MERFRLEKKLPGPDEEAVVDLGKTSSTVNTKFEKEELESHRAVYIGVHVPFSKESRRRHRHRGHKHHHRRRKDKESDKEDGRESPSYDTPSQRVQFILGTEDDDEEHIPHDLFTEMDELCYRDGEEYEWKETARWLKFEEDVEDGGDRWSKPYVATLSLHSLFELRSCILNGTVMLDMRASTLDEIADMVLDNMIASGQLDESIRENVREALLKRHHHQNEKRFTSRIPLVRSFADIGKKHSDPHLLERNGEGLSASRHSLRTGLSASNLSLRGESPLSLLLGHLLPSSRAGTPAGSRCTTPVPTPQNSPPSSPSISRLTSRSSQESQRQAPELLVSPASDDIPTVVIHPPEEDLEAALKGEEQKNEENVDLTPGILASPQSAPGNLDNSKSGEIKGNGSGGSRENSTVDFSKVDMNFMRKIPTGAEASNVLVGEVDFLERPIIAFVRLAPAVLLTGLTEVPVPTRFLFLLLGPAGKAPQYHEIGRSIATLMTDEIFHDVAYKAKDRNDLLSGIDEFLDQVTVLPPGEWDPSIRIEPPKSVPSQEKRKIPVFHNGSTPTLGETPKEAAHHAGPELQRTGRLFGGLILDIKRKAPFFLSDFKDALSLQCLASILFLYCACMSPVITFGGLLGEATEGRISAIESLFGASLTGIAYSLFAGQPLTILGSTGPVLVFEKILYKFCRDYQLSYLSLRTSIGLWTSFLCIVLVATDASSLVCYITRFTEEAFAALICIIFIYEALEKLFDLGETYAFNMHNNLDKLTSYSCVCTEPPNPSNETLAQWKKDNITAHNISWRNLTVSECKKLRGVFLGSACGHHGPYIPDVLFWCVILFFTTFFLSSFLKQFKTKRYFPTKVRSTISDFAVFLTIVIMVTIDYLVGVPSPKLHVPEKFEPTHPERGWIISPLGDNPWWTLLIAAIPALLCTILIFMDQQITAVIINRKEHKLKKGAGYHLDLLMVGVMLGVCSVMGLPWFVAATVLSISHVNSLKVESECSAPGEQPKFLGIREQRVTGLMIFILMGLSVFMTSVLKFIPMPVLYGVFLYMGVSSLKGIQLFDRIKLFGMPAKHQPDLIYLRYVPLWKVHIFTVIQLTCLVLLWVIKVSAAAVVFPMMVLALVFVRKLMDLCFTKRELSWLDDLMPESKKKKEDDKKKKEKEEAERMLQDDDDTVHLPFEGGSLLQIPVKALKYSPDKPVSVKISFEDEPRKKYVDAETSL

[8] = tested on: Na+,HCO3−-cotransport in isolated arteries; settings: previously shown; cited from earlier work
[9] = tested on: Na+,HCO3−-cotransport in breast cancer slices or freshly isolated breast cancer organoids; settings: earlier work; cited from earlier work
[10] = earlier work; cited from earlier work

## CCN(c1nc(N)c(C(=O)N=C(N)N)nc1Cl)C(C)C [5-(N-Ethyl-N-isopropyl)amiloride]
[1]
  remaining net acid extrusion after inhibition of Na+,HCO3−-cotransport in MCF-7 cells: inhibited

## Cc1ccc(CN(Cc2ccc(-c3ccccc3S(=O)(=O)NC#N)cc2)C(=O)c2ccccc2Cl)cc1 [S0859]
[2]; primary aortic explants from WT mice, CO2/HCO3- present, 5 and 30 μM
  Na+,HCO3−-cotransport activity: concentration-dependently attenuates
[2]; primary aortic explants, five minutes after addition of S0859
  steady-state pHi: concentration-dependently attenuates
[3]; 5 μM, PSS, presence of CO2/HCO3-
  wound healing: inhibited
[4]
  relative number of mitoses: no effect
Primary aortic explants; 5 μM, 18 hours, PSS with CO2/HCO3-
  cell integrity and morphology: well-maintained
Primary aortic explants; 30 μM, 18 hours, PSS with CO2/HCO3-
  cell morphology: severe morphological changes
Primary aortic explants; primary explants, CO2/HCO3−-containing PSS, FIG. 16
  cell viability: causes loss of cell viability
[5]; CO2/HCO3−-free conditions
  presence of filopodia: unaffected
[5]; explants from WT mice, CO2/HCO3−-containing PSS
  presence of filopodia: reduced
[6]; 5 μM, 15 minutes exposure, PSS
  pHi of migrating VSMCs, in particular at the tip of filopodia: strongly acidified
[7]
  Na+,HCO3−-cotransport in cultures of MCF7 breast cancer cells: inhibits
[8]
  cellular net acid extrusion in isolated arteries: does not affect
[9]
  effect in breast cancer slices or freshly isolated breast cancer organoids: has no effect
[10]
  protein binding: unusually strong protein binding

## C[C@@H](N)[C@H]1CC[C@H](C(=O)Nc2ccncc2)CC1 [Y-27632]
[3]; 10 μM, primary aortic explants from NBCn1 KO and WT mice
  wound healing: stimulated

## CC(=O)Nc1nnc(S(N)(=O)=O)s1 [acetazolamide]
[3]; 100 μM, aortic explants from NBCn1 KO mice, CO2/HCO3−-containing medium with serum
  initial rate of wound healing: increased
[5]; 100 μM, aortic explants from NBCn1 KO mice, presence of CO2/HCO3-
  abundance of filopodia: increased abundance
[6]; 100 μM, explants from NBCn1 KO mice, presence of CO2/HCO3-
  axial pHi gradients: reestablishes
